Kd data for one compound are collected here from publication PMC7568570, “Resensitizing carbapenem- and colistin-resistant bacteria to antibiotics using auranofin” (Nature Communications, 2020).

The experiment deals with T1, MCR-1 (Escherichia coli, UniProt A0A0R6L508).
T1 construct: gene mcr1; MCR-1-S, soluble periplasmic domain, residues 201-541 (200-541aa in Methods)
As to the kind of experiment: equilibrium dialysis with ICP-MS (Kd); crystal structure by soaking at […] Å; TLC cleavage inhibition of full-length MCR-1. In kind it is binding.

T1 sequence (A0A0R6L508 201-541): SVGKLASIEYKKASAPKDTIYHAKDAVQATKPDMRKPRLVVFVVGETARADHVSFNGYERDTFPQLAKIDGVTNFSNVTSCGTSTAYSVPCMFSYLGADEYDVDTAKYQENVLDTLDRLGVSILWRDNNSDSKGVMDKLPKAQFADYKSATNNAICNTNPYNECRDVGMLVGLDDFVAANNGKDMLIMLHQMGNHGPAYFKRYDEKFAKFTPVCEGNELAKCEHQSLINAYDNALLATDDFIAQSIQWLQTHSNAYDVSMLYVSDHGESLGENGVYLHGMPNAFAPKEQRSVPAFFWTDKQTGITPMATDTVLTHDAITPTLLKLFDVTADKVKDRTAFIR

`CC[P+](CC)(CC)[Au-][Cl]` [Au(PEt3)Cl, chloro(triethylphosphine)gold(I)] showed a Kd of 3.36 ± 0.38 µM.

One may read the Kd as the concentration at which binding is half-saturated.
